Tested on: unilateral vestibular neurectomized cats (UVN)
Assay: Support surface measurement: recovery of static posture after unilateral vestibular neurectomy
Type: in vivo, cat
Conditions: for Normalized posture area: DAY 2 of treatment, pre-operative value = 1, control 4.6
Experimental: We have previously described the surgery for vestibular neurectomy ([35]). “Adult male cats weighing 4–5 kg were anesthetized with ketamine (20 mg/kg, i.m.; Rhône Poulenc, Mérieux, France), received an analgesic (Tolfenamic acid: tolfedine, 0.5 ml, i.m.; Vetoquinol, Lure, France) and were kept at physiological body temperature using a blanket. The vestibular nerve was sectioned on the left-side at the post-ganglion level in order to leave the auditory division intact after mastoidectomy, partial destruction of the bony labyrinth, and surgical exposure of the internal auditory canal. Animals were maintained under antibiotics for 7 days and analgesics for 3 days.”
One […] group (N = 4: cats 10–13) was submitted to a UVN and received post-operatively a vehicle (placebo group). Two groups of cats were treated with betahistine at the lower dose of 0.2 mg/kg/day (N = 3: cats 14–16) or at the higher dose of 2 mg/kg/day (N = 3: cats 17–19). Another group of cats received the combination of both betahistine at 0.2 mg/kg/day plus selegiline at the dose of 1 mg/kg/day (N = 3: cats 20–22).
Placebo treatment was pursued until full recovery of posture control in the control group, that is, 40 days on average. The same post-lesion period was investigated in the three experimental groups receiving betahistine or betahistine + selegiline.
We have described in previous papers how posture deficits and recovery were evaluated ([21]). The surface delimited by the four legs of the cat was measured while standing erect at rest, without walking. “Support surface is considered a good estimate of postural control since it reflects the cat's behavioral adaptation to compensate the static vestibulospinal deficits induced by the vestibular lesion. […] To quantify the support surface, cats were placed in a device with a graduated transparent floor that allowed them to be photographed from underneath. Five repeated measurements were done for each cat tested at each post-operative time, and an average was calculated for each experimental session. The support surface was measured as the surface delimited by the four legs by an image analysis system (Canvas, 9^TM, Deneba software, Miami, FL). Post-lesion data were compared to pre-lesion values by using individual references, each animal being its own control. Recovery of static posture function was assessed by the changes and development of the support surface over time. The recovery was considered as total when the support surface returned to the pre-operative value (unity, i.e., 1).”
Statistical analysis consisted of an ANOVA to test for changes at the different post-lesion days (2, 4, 6, 10, 15, 20, 25, 30, 35, 40 days) for the support surface in each group of cats. Repeated-measure analysis of variance was used to test (1) the effects of betahistine treatment (controls vs. treated cats), (2) the effects of the betahistine dose (0.2 vs. 2 mg/kg), and (3) the effects of additional selegiline on the lowest betahistine dose (0.2 mg/kg betahistine + 1 mg/kg selegiline).
ANOVA was followed by post-hoc analysis (Scheffe-test and multicomparison Fisher's test: Statview II software). Results were considered significant at P < 0.05. To distinguish between chronic and early effects of betahistine treatment a Two-way-ANOVA with day and treatment as discriminating factors was performed (GraphPad Prism 5.0). The Cohen's d-value (two means differences/largest standard deviation) was evaluated to test the size effect.

In the case of `CNCCc1ccccn1` [Betahistine, betahistine], the “Post-lesion day (D+) of complete recovery of posture” value (2 mg/kg betahistine group, earlier than controls) was 10, the “Cohen's d, control versus treatment (support surface)” value (“Cohen's d, control versus treatment” below) (Betahistine (0.2 mg), D+2) was 0.657 and the “Cohen's d, control versus treatment” value (Betahistine (0.2 mg), D+4) was 3.289. The “Cohen's d, control versus treatment” value (Betahistine (0.2 mg), D+6) was 2.510, the “Cohen's d, control versus treatment” value (Betahistine (0.2 mg), D+10) was 2.708 and the “Cohen's d, control versus treatment” value (Betahistine (0.2 mg), D+15) was 4.224. The “Cohen's d, control versus treatment” value (Betahistine (0.2 mg), D+20) was 2.064, the “Cohen's d, control versus treatment” value (Betahistine (0.2 mg), D+25) was 2.870 and the “Cohen's d, control versus treatment” value (Betahistine (0.2 mg), D+30) was 5.146. The “Cohen's d, control versus treatment” value (Betahistine (0.2 mg), D+40) was -1.447, the “Cohen's d, control versus treatment” value (Betahistine (2 mg), D+2) was 2.662 and the “Cohen's d, control versus treatment” value (Betahistine (2 mg), D+4) was 3.616. The “Cohen's d, control versus treatment” value (Betahistine (2 mg), D+6) was 2.799, the “Cohen's d, control versus treatment” value (Betahistine (2 mg), D+10) was 5.398 and the “Cohen's d, control versus treatment” value (Betahistine (2 mg), D+15) was 7.246. The “Cohen's d, control versus treatment” value (Betahistine (2 mg), D+20) was 13.857, the “Cohen's d, control versus treatment” value (Betahistine (2 mg), D+25) was 8.478 and the “Cohen's d, control versus treatment” value (Betahistine (2 mg), D+30) was 6.512. The “Cohen's d, control versus treatment” value (Betahistine (2 mg), D+40) was 3.320, the Normalized posture area (BH 0.2 mg/kg) was 3.98 and the Normalized posture area (BH 2.0 mg/kg) was 2.4. The “Difference from controls with respect to complete time of recovery (ANOVA)” value (betahistine 0.2 mg/kg, P < 0.15) was “did not significantly differed”, the “Support surface versus untreated cats, Bonferroni post-test” value (betahistine 0.2 mg/kg, p < 0.01, first week only) was “significant differences at the particular D+4 and D+6 time delays” and the “Complete time of recovery of posture” value (betahistine 0.2 mg/kg, same as controls) was “around 6 weeks”. For the same molecule, the “Difference from controls with respect to complete time of recovery (ANOVA)” value (betahistine 2 mg/kg, P < 0.026) was “differed significantly”.
